“And” between values parts separate entries of the source, which are not always exact repeats. Identical values can stand only once. Like-named read-outs stand apart in the source and are kept apart here.
How the values were obtained:
[1] = test system: cells from the thymus of normal BALB/c mice (lymphocyte proliferation); assay: LAF assay: comitogen-induced thymocyte proliferation (inhibition of lymphocyte proliferation); format: cell-based
Experimental: Immunosuppressive activity was determined in an in vitro standard pharmacological test to measure lymphocyte proliferation (LAF). […] Thus in this assay, the invention compounds have LAF activity equal or greater than rapamycin and would therefore be expected to posses the immunological properties of rapamycin and be useful in the treatment of transplantation rejection and autoimmune diseases such as lupus, rheumatoid arthritis, diabetes mellitus, multiple sclerosis, psoriasis and the like. Because of the structural similarity of the invention compounds with rapamycin and other analogs having antifungal activity against several strains of Candida albicans, the compounds of this invention would also be expected to have antifungal properties. Similarly, the compounds of this invention would be expected to have antiinflammatory activity.
The comitogen-induced thymocyte proliferation procedure (LAF) was used as an in vitro measure of the immunosuppressive effects of representative compounds. Briefly, cells from the thymus of normal BALB/c mice are cultured for 72 hours with PHA and IL-1 and pulsed with tritiated thymidine during the last six hours. Cells are cultured with and without various concentrations of rapamycin, cyclosporin A, or test compound. Cells are harvested and incorporated; radioactivity is determined. Inhibition of lymphoproliferation is assessed in percent change in counts per minute from non-drug treated controls. The results are expressed by the following ratio, or as the percent inhibition of lymphoproliferation at a concentration of 1 μM or as the IC50. [formula]

tumor = conditions: alone or in combination with picibanil; cited from earlier work
Candida albicans [2] = conditions: particularly against Candida albicans; cited from earlier work
[3] = in vivo; cited from earlier work
[4] = in vivo; cited from earlier work; remark: listed apart in the source
IgE-like antibodies = conditions: in vivo; cited from earlier work
Candida albicans [5] = conditions: particularly against Candida albicans; cited from earlier work; remark: listed apart in the source
[6] = cited from earlier work
[7] = Mus musculus, Lymphocyte, 72 h, Table I, 72 hours culture with PHA and IL-1, read-out: IC50 Ester (IC50 data for LAF assay)

Question: Which IC50 [1, 7] does the source give for COC(=O)O[C@@H]1CC[C@@H](C[C@@H](C)[C@@H]2CC(=O)[C@H](C)/C=C(\C)[C@@H](O)[C@@H](OC)C(=O)[C@H](C)C[C@H](C)/C=C/C=C/C=C(\C)[C@@H](OC)C[C@@H]3CC[C@@H](C)[C@@](O)(O3)C(=O)C(=O)N3CCCC[C@H]3C(=O)O2)C[C@H]1OC [Example 1B, 42-O-Methoxycarbonylrapamycin] here?
Answer: 2.5 nM

Question: Which IC50 [1, 7] does the source give for C=CCOC(=O)O[C@@H]1CC[C@@H](C[C@@H](C)[C@@H]2CC(=O)[C@H](C)/C=C(\C)[C@@H](O)[C@@H](OC)C(=O)[C@H](C)C[C@H](C)/C=C/C=C/C=C(\C)[C@@H](OC)C[C@@H]3CC[C@@H](C)[C@@](O)(O3)C(=O)C(=O)N3CCCC[C@H]3C(=O)O2)C[C@H]1OC [Example 5, 42-O-(Prop-2-enyloxycarbonyl)rapamycin] here?
Answer: 1.6 nM

Question: For CO[C@H]1C[C@@H]2CC[C@@H](C)[C@@](O)(O2)C(=O)C(=O)N2CCCC[C@H]2C(=O)O[C@H]([C@H](C)C[C@@H]2CC[C@@H](OC(=O)Oc3ccc([N+](=O)[O-])cc3)[C@H](OC)C2)CC(=O)[C@H](C)/C=C(\C)[C@@H](O)[C@@H](OC)C(=O)[C@H](C)C[C@H](C)/C=C/C=C/C=C/1C [Example 4A, 42-O-(4-Nitrophenyloxycarbonyl)rapamycin], which IC50 [1, 7] is on record?
Answer: 1 nM

Question: Which IC50 ([1]; Mus musculus, Lymphocyte, 72 h, read-out: IC50 Ester (IC50 data for LAF assay)) does the source give for CO[C@H]1C[C@@H]2CC[C@@H](C)[C@@](O)(O2)C(=O)C(=O)N2CCCC[C@H]2C(=O)O[C@H]([C@H](C)C[C@@H]2CC[C@@H](OC(=O)Oc3ccc([N+](=O)[O-])cc3)[C@H](OC)C2)CC(=O)[C@H](C)/C=C(\C)[C@@H](OC(=O)Oc2ccc([N+](=O)[O-])cc2)[C@@H](OC)C(=O)[C@H](C)C[C@H](C)/C=C/C=C/C=C/1C [Example 4B, 31, 42-O-Bis(4-Nitrophenyloxycarbonyl)rapamycin] here?
Answer: 23 nM

Question: With CO[C@H]1C[C@@H]2CC[C@@H](C)[C@@](O)(O2)C(=O)C(=O)N2CCCC[C@H]2C(=O)O[C@H]([C@H](C)C[C@@H]2CC[C@@H](OC(=O)Oc3ccccc3)[C@H](OC)C2)CC(=O)[C@H](C)/C=C(\C)[C@@H](O)[C@@H](OC)C(=O)[C@H](C)C[C@H](C)/C=C/C=C/C=C/1C [Example 3, 42-O-(Phenyloxycarbonyl)rapamycin] as the molecule, how does the IC50 [1, 7] read?
Answer: 0.34 nM

Question: With COC(=O)O[C@@H]1/C(C)=C/[C@@H](C)C(=O)C[C@@H]([C@H](C)C[C@@H]2CC[C@@H](OC(=O)OC)[C@H](OC)C2)OC(=O)[C@@H]2CCCCN2C(=O)C(=O)[C@]2(O)O[C@@H](CC[C@H]2C)C[C@H](OC)/C(C)=C/C=C/C=C/[C@@H](C)C[C@@H](C)C(=O)[C@@H]1OC [Example 1A, 31, 42-O-Bis(methoxycarbonyl)rapamycin] as the molecule, how does the IC50 [1, 7] read?
Answer: 0.87 nM

Question: With CCOC(=O)O[C@@H]1CC[C@@H](C[C@@H](C)[C@@H]2CC(=O)[C@H](C)/C=C(\C)[C@@H](O)[C@@H](OC)C(=O)[C@H](C)C[C@H](C)/C=C/C=C/C=C(\C)[C@@H](OC)C[C@@H]3CC[C@@H](C)[C@@](O)(O3)C(=O)C(=O)N3CCCC[C@H]3C(=O)O2)C[C@H]1OC [Example 2B, 42-O-Ethoxycarbonylrapamycin] as the molecule, how does the IC50 [1, 7] read?
Answer: 0.6 nM

Question: Which antitumor activity (tumor) does the source give for CO[C@H]1C[C@@H]2CC[C@@H](C)[C@@](O)(O2)C(=O)C(=O)N2CCCC[C@H]2C(=O)O[C@H]([C@H](C)C[C@@H]2CC[C@@H](O)[C@H](OC)C2)CC(=O)[C@H](C)/C=C(\C)[C@@H](O)[C@@H](OC)C(=O)[C@H](C)C[C@H](C)/C=C/C=C/C=C/1C [Rapamycin] here?
Answer: antitumor activity

Question: What about the “antifungal activity in vitro” value (Candida albicans [2]) of the same molecule?
Answer: antifungal activity, particularly against Candida albicans

Question: And the “efficacy in experimental allergic encephalomyelitis model” value [3]?
Answer: effective

Question: And the “efficacy in adjuvant arthritis model” value [4]?
Answer: effective

Question: What about the “inhibition of formation of IgE-like antibodies” value (IgE-like antibodies) of the same molecule?
Answer: effectively inhibited

Question: What about the “antifungal activity in vivo” value (Candida albicans [5]) of the same molecule?
Answer: antifungal activity, particularly against Candida albicans

Question: And the “inhibition of transplant rejection” value ([6]; in vivo)?
Answer: effective in inhibiting transplant rejection

Question: And the IC50 ([1]; Table I, Rapamycin, comparative result beside each example ester, read-out: IC50 Rapamycin (IC50 data for LAF assay))?
Answer: 3.9 nM and 3.8 nM and 6.3 nM

Question: Which IC50 [1, 7] does the source give for CO[C@H]1C[C@@H]2CC[C@@H](C)[C@@](O)(O2)C(=O)C(=O)N2CCCC[C@H]2C(=O)O[C@H]([C@H](C)C[C@@H]2CC[C@@H](OC(=O)OCc3ccccc3)[C@H](OC)C2)CC(=O)[C@H](C)/C=C(\C)[C@@H](O)[C@@H](OC)C(=O)[C@H](C)C[C@H](C)/C=C/C=C/C=C/1C [Example 6, 42-O-(Benzyloxycarbonyl)rapamycin] here?
Answer: 0.32 nM

Question: With CCOC(=O)O[C@@H]1/C(C)=C/[C@@H](C)C(=O)C[C@@H]([C@H](C)C[C@@H]2CC[C@@H](OC(=O)OCC)[C@H](OC)C2)OC(=O)[C@@H]2CCCCN2C(=O)C(=O)[C@]2(O)O[C@@H](CC[C@H]2C)C[C@H](OC)/C(C)=C/C=C/C=C/[C@@H](C)C[C@@H](C)C(=O)[C@@H]1OC [Example 2A, 31, 42-O-Bis(ethoxycarbonyl)rapamycin] as the molecule, how does the IC50 [1, 7] read?
Answer: 2 nM

Question: Which “effectiveness as immunosuppressive agent” value ([6]; useful in preventing transplant rejection) does the source give for C=CC[C@@H]1/C=C(\C)C[C@H](C)C[C@H](OC)[C@H]2O[C@@](O)(C(=O)C(=O)N3CCCC[C@H]3C(=O)O[C@H](/C(C)=C/[C@@H]3CC[C@@H](O)[C@H](OC)C3)[C@H](C)[C@@H](O)CC1=O)[C@H](C)C[C@@H]2OC [FK-506] here?
Answer: effective as immunosuppressive agents

— patent US5260300A, “Rapamycin carbonate esters as immuno-suppressant agents” (American Home Products Corporation, priority 1992, dated 1993)
